These results are taken from patent publication US5861480A, “Antimicrobial proteins from aralia and impatiens” (Zeneca Limited, priority 1994, dated 1999).

Some results are limits rather than exact numbers.

Common to all, as to format: cell-based
The test system of test [1] is A longipes (Alternaria lonaives CBS62083). Briefly: Antifungal activity assay (microspectrophotometry), A longipes. To be noted: 48 h.
Test [2] has as its system Botrytis cinerea MUCL 30158. Briefly: Antifungal activity assay (microspectrophotometry), B cinerea. The note with it: 48 h.
Test [3] deals with C sphaerospermum (Cladosnorium sphaerospermum KO791). In words: Antifungal activity assay (microspectrophotometry), C sphaerospermum. The note with it: 48 h.
Test [4] concerns Fusarium culmorum IMI 180420. Briefly: Antifungal activity assay (microspectrophotometry), F culmorum. The note with it: 48 h.
Test [5] relates to P digitatum (Penicillium dipitatum (K0879)). Briefly: Antifungal activity assay (microspectrophotometry), P digitatum. The note with it: 48 h.
Test [6] has as its system Septoria tritici (K1097D). Briefly: Antifungal activity assay (microspectrophotometry), S tritici. The note with it: 48 h.
The next test has as its system Trichoderma viride K1127. Briefly: Antifungal activity assay (microspectrophotometry), T viride. The note with it: 48 h.
Test [7] relates to Verticillium albo-atrum K0937. In words: Antifungal activity assay (microspectrophotometry), V albo-atrum. The note with it: 48 h.
The test system of the next test is plant pathogenic fungi. In words: Antifungal potency on different plant pathogenic fungi (summary over the panel). To be noted: high salt medium (medium B).
Test [8] has as its system B maydis (Bipolaris mavdis HM-10). In words: Antifungal activity assay (microspectrophotometry), B maydis. The note with it: Medium A (1/2 PDB), 48 h.
Test [9] has as its system Cercospora beticola strain K897. Briefly: Antifungal activity assay (microspectrophotometry), C beticola. To be noted: Medium A (1/2 PDB), 48 h.
Test [10] deals with C graminicola (Colletotrichum Qraminicola CG-17). Briefly: Antifungal activity assay (microspectrophotometry), C graminicola. The note with it: Medium A (1/2 PDB), 48 h.
Test [11] relates to F graminearum (Fusarium craminearum FR-12). The note with it: Medium A (1/2 PDB), 48 h.
The test system of test [12] is Fusarium moniliforme FM-9. In words: Antifungal activity assay (microspectrophotometry), F moniliforme. To be noted: Medium A (1/2 PDB), 48 h.
The test system of a further test is Stenocarpella maydis. In words: Antifungal activity assay (microspectrophotometry), S maydis. The note with it: Medium A (1/2 PDB), 48 h.
Test [13] deals with Sphacelotheca reiliana HS. Briefly: Antifungal activity assay (microspectrophotometry), S reiliana. The note with it: Medium A (1/2 PDB), 48 h.
The test system of test [14] is Verticillium dahliae MUCL 19210. Briefly: Antifungal activity assay (microspectrophotometry), V dahliae. To be noted: Medium A (1/2 PDB), 48 h.
Test [15] relates to Bacillus megaterium ATCC 13632. Briefly: Antibacterial activity assay (microspectrophotometry), B megaterium. The note with it: bacterial suspension in soft nutrient agarose, 24 hours at 28° C.
Test [16] deals with Escherichia coli strain HB101. Briefly: Antibacterial activity assay (microspectrophotometry), E coli. To be noted: bacterial suspension in soft nutrient agarose, 24 hours at 28° C.
The subject of test [17] is Saccharomyces cerevisiae JRY188. In words: Anti-yeast activity assay, S cerevisiae.
A further test concerns Candida albicans KA-1. Briefly: Anti-yeast activity assay, C albicans.
Setting [18] is: Medium B (1/2 PDB + 1 mM CaCl2 and 50 mM KCl).

For “Ib-AMP4: Impatiens balsamina antimicrobial protein 4, purified from I balsamina seeds; amino acid sequence SEQ ID NO 13 (QWGRRCCGWGPGRRYCRRWC)”, the “IC50 (growth inhibition) A longipes” value in [1] (Medium A (1/2 PDB)) was 3 µg/mL; in test [1] (setting [18]) it was 12 µg/mL. The “IC50 (growth inhibition) B cinerea” value is 6 µg/mL in [2] (Medium A (1/2 PDB)) and 200 µg/mL in [2] (setting [18]). Further, the “IC50 (growth inhibition) C sphaerospermum” value in [3] (Medium A (1/2 PDB)) was found to be 1 µg/mL; in test [3] (setting [18]), 6 µg/mL. For the same substance, the “IC50 (growth inhibition) F culmorum” value in test [4] (Medium A (1/2 PDB)) amounted to 1 µg/mL; in [4] (setting [18]) it was 6 µg/mL. The results for the “IC50 (growth inhibition) P digitatum” value in test [5] (Medium A (1/2 PDB)) and in test [5] (setting [18]) were 3 µg/mL and 25 µg/mL, respectively. The “IC50 (growth inhibition) S tritici” value in [6] (Medium A (1/2 PDB)) is 1 µg/mL; in test [6] (setting [18]), 12 µg/mL. Also, the figures for the “IC50 (growth inhibition) T viride” value with Trichoderma viride K1127 (Medium A (1/2 PDB)) and in the test with Trichoderma viride K1127 (setting [18]) were 6 µg/mL and 150 µg/mL, respectively. The results for the “IC50 (growth inhibition) V albo-atrum” value in test [7] (Medium A (1/2 PDB)) and in test [7] (setting [18]) were 6 µg/mL and 50 µg/mL, respectively. Further, the “antifungal activity in high salt medium (in words)” value in the test on plant pathogenic fungi is on record as “fairly strong activity”.

On to “Ib-AMP1: Impatiens balsamina antimicrobial protein 1, purified from I balsamina seeds; amino acid sequence SEQ ID NO 10 (QWGRRCCGWGPGRRYCVRWC)”, for which the “IC50 (growth inhibition) A longipes” value in [1] (Medium A (1/2 PDB)) is 3 µg/mL; in test [1] (setting [18]), 50 µg/mL. The figures for the “IC50 (growth inhibition) B cinerea” value in test [2] (Medium A (1/2 PDB)) and in test [2] (setting [18]) were 12 µg/mL and more than 200 µg/mL, respectively. Besides, the “IC50 (growth inhibition) B maydis” value in [8] turned out to be 7 µg/mL. In addition, the “IC50 (growth inhibition) C beticola” value in [9] came out at 1.5 µg/mL. Besides, the “IC50 (growth inhibition) C graminicola” value in [10] came out at 2 µg/mL. For the same substance, the “IC50 (growth inhibition) C sphaerospermum” value in test [3] (Medium A (1/2 PDB)) came to 1.5 µg/mL; in [3] (setting [18]) it was 50 µg/mL. Further, the “IC50 (growth inhibition) F culmorum” value in test [4] (Medium A (1/2 PDB)) worked out at 1.5 µg/mL; in test [4] (setting [18]) it was 50 µg/mL. Besides, in test [11], the “IC50 (growth inhibition) F graminearum” value came out at 3 µg/mL. In addition, the “IC50 (growth inhibition) F moniliforme” value in [12] was found to be 20 µg/mL. In addition, the “IC50 (growth inhibition) P digitatum” value in test [5] (Medium A (1/2 PDB)) is 3 µg/mL; in [5] (setting [18]), 200 µg/mL. Further, the “IC50 (growth inhibition) S maydis” value in the test on Stenocarpella maydis was 5 µg/mL. Also, the “IC50 (growth inhibition) S reiliana” value in [13] is 4 µg/mL. Besides, the figures for the “IC50 (growth inhibition) S tritici” value in test [6] (Medium A (1/2 PDB)) and in [6] (setting [18]) were 1 µg/mL and 50 µg/mL, respectively. Moreover, the results for the “IC50 (growth inhibition) T viride” value in the test on Trichoderma viride K1127 (Medium A (1/2 PDB)) and in the test with Trichoderma viride K1127 (setting [18]) were 6 µg/mL and more than 200 µg/mL, respectively. Besides, the entries for the “IC50 (growth inhibition) V albo-atrum” value in [7] (Medium A (1/2 PDB)) and in test [7] (setting [18]) were 3 µg/mL and more than 200 µg/mL, respectively. In addition, the “IC50 (growth inhibition) V dahliae” value in [14] came to 1 µg/mL. In addition, the “IC50 (growth inhibition) B megaterium” value in test [15] came to 10 µg/mL. In addition, the “IC50 (growth inhibition) E coli” value in test [16] was more than 800 µg/mL. Moreover, in [17], the “IC50 (growth inhibition) S cerevisiae” value was 20 µg/mL. Besides, in the test on Candida albicans KA-1, the “IC50 (growth inhibition) C albicans” value was determined as 10 µg/mL. Moreover, the “effect on the growth of C. albicans (in words)” value in the test with Candida albicans KA-1 is on record as “strongly inhibitied”.

In the case of “Ib-AMP3: Impatiens balsamina antimicrobial protein 3, purified from I balsamina seeds; amino acid sequence SEQ ID NO 12 (QYRHRCCAWGPGRKYCKRWC)”, the results for the “IC50 (growth inhibition) A longipes” value in [1] (Medium A (1/2 PDB)) and in test [1] (setting [18]) were 6 µg/mL and more than 200 µg/mL, respectively. Further, the “IC50 (growth inhibition) B cinerea” value in test [2] (Medium A (1/2 PDB)) was 6 µg/mL; in test [2] (setting [18]), more than 200 µg/mL. The “IC50 (growth inhibition) C sphaerospermum” value stood at 3 µg/mL in test [3] (Medium A (1/2 PDB)) and 100 µg/mL in test [3] (setting [18]). Besides, the “IC50 (growth inhibition) F culmorum” value in test [4] (Medium A (1/2 PDB)) is 6 µg/mL; in [4] (setting [18]) it was 100 µg/mL. Also, the “IC50 (growth inhibition) P digitatum” value in test [5] (Medium A (1/2 PDB)) turned out to be 3 µg/mL; in [5] (setting [18]) it was 100 µg/mL. Further, the “IC50 (growth inhibition) T viride” value in the test with Trichoderma viride K1127 (Medium A (1/2 PDB)) was 12 µg/mL; in the test on Trichoderma viride K1127 (setting [18]) it was more than 200 µg/mL. Moreover, the “IC50 (growth inhibition) V albo-atrum” value in [7] (Medium A (1/2 PDB)) is 6 µg/mL; in test [7] (setting [18]) it was more than 200 µg/mL.

Consider “Ib-AMP2: Impatiens balsamina antimicrobial protein 2, purified from I balsamina seeds; amino acid sequence SEQ ID NO 11 (QYGRRCCNWGPGRRYCKRWC)”, for which the “IC50 (growth inhibition) A longipes” value was 12 µg/mL in [1] (Medium A (1/2 PDB)) and more than 200 µg/mL in test [1] (setting [18]). Also, the “IC50 (growth inhibition) B cinerea” value in test [2] (Medium A (1/2 PDB)) is 25 µg/mL; in test [2] (setting [18]), more than 200 µg/mL. Besides, the “IC50 (growth inhibition) C beticola” value in test [9] is 3 µg/mL. Further, the results for the “IC50 (growth inhibition) C sphaerospermum” value in [3] (Medium A (1/2 PDB)) and in [3] (setting [18]) were 6 µg/mL and more than 200 µg/mL, respectively. Also, the “IC50 (growth inhibition) F culmorum” value in [4] (Medium A (1/2 PDB)) was 6 µg/mL; in test [4] (setting [18]) it was more than 200 µg/mL. For the same substance, the “IC50 (growth inhibition) P digitatum” value in test [5] (Medium A (1/2 PDB)) is 6 µg/mL; in test [5] (setting [18]), more than 200 µg/mL. For the same substance, the “IC50 (growth inhibition) T viride” value with Trichoderma viride K1127 (Medium A (1/2 PDB)) is 12 µg/mL; with Trichoderma viride K1127 (setting [18]), more than 200 µg/mL. In addition, the “IC50 (growth inhibition) V albo-atrum” value is 12 µg/mL in [7] (Medium A (1/2 PDB)) and more than 200 µg/mL in test [7] (setting [18]).
